Values after ≈ are worked out from the molar mass of the structure shown. Like-named read-outs stand apart in the source and are kept apart here.
Assays:
[1] = In vitro toxicity (haemolysis of human erythrocytes); format: cell-based; conditions: human, erythrocytes, 30 minutes at 37° C., read-out: EH50 (concentration at which 50% of hemolysis occurred)
Protocol: (§1) Toxicity of compounds in vitro against animal cells was determined using standard for polyene macrolides procedure, by the determination of the degree of haemolysis of human erythrocytes. Human erythrocytes isolated from fresh, citrated human blood were washed twice with cold saline. The cells were diluted 250 times with saline and equilibrated for 30 minutes at 37° C. Samples of erythrocytes were incubated with various concentrations of antibiotics (the base solution in DMF) for 30 minutes at 37° C. After centrifugation the lysis of erythrocytes was assessed by determination of the haemoglobin released to the solution. Optical density of the supernatant was measured at […]. The results were expressed by EH50 value, as concentration of antibiotic at which 50% of hemolysis occurred. The values of EH50 were read from a curve relating the degree of hemolysis with antibiotic dose.

Solubility = format: physicochemical
[2] = test system: Candida albicans ATCC 262778; experiment: In vitro antifungal activity (growth inhibition, turbidimetric, liquid Sabouraud medium); format: cell-based; conditions: for IC50 (concentration inhibiting growth of fungi by 50%): 24 hours at 30° C., liquid Sabouraud medium
Protocol: The antifungal activity of compounds was determined following the standard for polyene macrolide procedure. The liquid Sabouraud medium was inoculated with 10^4 cells/ml of test organism Candida albicans ATCC 262778 and incubated for 24 hours at 30° C. with the tested antibiotic (serial dilutions). Amphotericin B was used as the reference. Compounds were dissolved in DMF and suitable amounts of the solutions were added to the medium. Turbidimetric method (660 nm) was applied to determine the degree of growth inhibition. The concentration of antibiotic at which the growth of fungi was inhibited by 50% was determined from the dose response curve. The obtained IC50 value characterized antifungal activity of the compound.

human erythrocytes = experiment: In vitro toxicity (haemolysis of human erythrocytes); format: cell-based; conditions: 30 minutes at 37° C.
Protocol: as §1

[3] = test system: Swiss Webster female mice; experiment: Serum indexes after acute toxicity study; format: in vivo; conditions: in comparison with the control (5% glucose), after 7 days
Protocol: (§3) Various doses of the tested compound, and for comparison, amphotericin B in form of Fungizone, dissolved in 5% glucose were given intravenously to the animals. The administered volume of the solution was 0.5 ml. 0.5 ml of 5% solution of glucose was administered to mice as a control. Every dose of both preparations was administered to 5 mice. […] Next, the animals were killed, and some serum indexes were determined.

[4] = In vivo toxicity, maximum tolerated dose (MTD); conditions: mouse, in vivo, Balb/c mice
Protocol: (§2) In vivo toxicity was determined for methyl ester of N-methyl-N-D-fructosylamphotericin B L-aspartate as the maximum tolerated dose (MTD), and as the acute toxicity (LD50). To determine MTD dose the compound was dissolved in 5% solution of glucose, and administered intravenously and intraperitonealy to Balb/c mice in single and multiple doses.

Balb/c mice = experiment: In vivo toxicity, maximum tolerated dose (MTD); conditions: intraperitoneal 100 mg/kg for 5 days, 20 days of observation
Protocol: as §2

Acute toxicity (LD50) = conditions: mouse, in vivo, iv
Protocol: as §3

Candida albicans = experiment: Chemotherapeutic efficacy, systemic murine candidose model; format: in vivo; conditions: 840 h, intravenous, twice a day, 5 days, female Swiss Webster mice
Protocol: Candida albicans was grown overnight in Sabouraud dextrose broth at room temperature. The fungal cells were centrifuged, washed twice with 0.9% solution of sodium chloride, and suspended in physiological salt solution. Female Swiss Webster mice of 25 g weight, were injected intravenously with 10^5 cells of Candida in 0.2 ml of 0.9% sodium chloride solution. Initially, the infection was systemic, but by 2 to 3 days it was localized to the kidneys. Untreated animals usually died between 7 to 14 days post-infection. Three days post-infection, animals were treated intravenously, twice a day, for 5 consecutive days with a 5 to 6 hours interval. Preparation was administered as a solution in 5% glucose. […] After this time, the surviving animals were sacrificed, their kidneys were removed, homogenized in sterile water, and the homogenate was placed on Sabouraud dextrose agar, and the grown colonies of Candida were counted. […] The dose, called ED50, was calculated using a method given in J.Hyg.

## COC(=O)[C@H]1[C@@H]2C[C@@H](O[C@@H]3O[C@H](C)[C@@H](O)[C@H](N(C)CC4(O)OC[C@@H](O)[C@@H](O)[C@@H]4O)[C@@H]3O)/C=C/C=C/C=C/C=C/C=C/C=C/C=C/[C@H](C)[C@@H](O)[C@@H](C)[C@H](C)OC(=O)C[C@H](O)C[C@H](O)CC[C@@H](O)[C@H](O)C[C@H](O)C[C@](O)(C[C@@H]1O)O2 (single isomer, unassigned) [Example I, N-methyl-N-D-fructosylamphotericin B methyl ester]
[1]
  HC50 at 0.5 h: > 350 µg/mL
Solubility; under conditions of the haemolysis experiment, read-out: solubility limit (insoluble above)
  solubility: ≤ 350 µg/mL
[2]
  IC50 (concentration inhibiting growth of fungi by 50%): 0.12 µg/mL

## COC(=O)[C@H]1[C@@H]2C[C@@H](O[C@@H]3O[C@H](C)[C@@H](O)[C@H](N(C)CC4(O)OC[C@@H](O)[C@@H](O)[C@@H]4O)[C@@H]3O)/C=C/C=C/C=C/C=C/C=C/C=C/C=C/[C@H](C)[C@@H](O)[C@@H](C)[C@H](C)OC(=O)C[C@H](O)C[C@H](O)CC[C@@H](O)[C@H](O)C[C@H](O)C[C@](O)(C[C@@H]1O)O2 (single isomer, unassigned) [Example VIII, N-methyl-N-D-fructosylamphotericin B methyl ester]
Human erythrocytes; 30 min
  EH50 (concentration at which 50% of hemolysis occurred): above 200 μg/ml
[2]
  IC50 (concentration inhibiting growth of fungi by 50%): 0.42 µg/mL

## COC(=O)[C@H]1[C@@H]2C[C@@H](O[C@@H]3O[C@H](C)[C@@H](O)[C@H](N(C)CC4(O)OC[C@@H](O)[C@@H](O)[C@@H]4O)[C@@H]3O)/C=C/C=C/C=C/C=C/C=C/C=C/C=C/[C@H](C)[C@@H](O)[C@@H](C)[C@H](C)OC(=O)C[C@H](O)C[C@H](O)CC[C@@H](O)[C@H](O)C[C@H](O)C[C@](O)(C[C@@H]1O)O2 (stereo partly drawn) [Example X, methyl ester of N-methyl-N-D-fructosylamphotericin B L-aspartate]
Human erythrocytes; 30 min
  EH50 (concentration at which 50% of hemolysis occurred): above 350 μg/ml
[3]
  level of aspartate aminotransferase: No increased level
  level of creatinine: No increased level
Solubility; DMF, DMSO, 5% aqueous glucose
  solubility in N,N-dimethylformamide, dimethylsulphoxide and 5% water solution of glucose: soluble
Solubility; water
  solubility in water: very well soluble in water
[4]; ip, intraperitoneal, for 5 days, read-out: maximum multiple tolerated dose
  MTD: > 100 mg/kg
[4]; ip, intraperitoneal, single dose, in 5% glucose, read-out: maximum single tolerated dose (MTD)
  MTD: > 200 mg/kg
[4]; iv, single dose, in 5% glucose, read-out: maximum single tolerated dose (MTD)
  MTD: 100 mg/kg
Balb/c mice
  toxic effects: toxic effects were not observed
Acute toxicity (LD50)
  LD50 at 168 h: 400 mg/kg
[2]; ATCC262778, 24 h, read-out: IC50 (concentration inhibiting growth of fungi by 50%)
  IC50: 0.125 µg/mL (≈ 0.112 µM)
Candida albicans; 5 weeks observation, read-out: ED50 based on the survival
  ED50: 2.3 mg/kg
Candida albicans; clearance of Candida from kidneys, read-out: ED50 based on the kidneys clearance
  ED50: 6 mg/kg

## C[C@@H]1[C@H](O)[C@@H](C)/C=C/C=C/C=C/C=C/C=C/C=C/C=C/[C@H](O[C@@H]2O[C@H](C)[C@@H](O)[C@H](N)[C@@H]2O)C[C@@H]2O[C@](O)(C[C@@H](O)C[C@@H](O)[C@H](O)CC[C@@H](O)C[C@@H](O)CC(=O)O[C@H]1C)C[C@H](O)[C@H]2C(=O)O [amphotericin B, reference compound]
[1]
  HC50 at 0.5 h: 1.5 µg/mL

## N-methyl-N-D-fructosylamphotericin B methyl ester [Example IX]
[2]
  IC50 (concentration inhibiting growth of fungi by 50%): 6.0 µg/mL

## N-methyl-N-D-fructosylamphotericin B methyl ester [Example VII]
[2]
  IC50 (concentration inhibiting growth of fungi by 50%): 0.42 µg/mL

## N-methyl-N-D-fructosylcandidin D methyl ester [Example V]
Human erythrocytes
  EH50 (concentration at which 50% of hemolysis occurred): ≈ 180 μg/ml
[2]
  IC50 (concentration inhibiting growth of fungi by 50%): 0.01 µg/mL

## N-methyl-N-D-fructosylcandidin methyl ester [Example II]
Human erythrocytes
  EH50 (concentration at which 50% of hemolysis occurred): above 300 μg/ml
[2]
  IC50 (concentration inhibiting growth of fungi by 50%): 0.75 µg/mL

## N-methyl-N-D-fructosylnystatin methyl ester [Example III]
Human erythrocytes
  EH50 (concentration at which 50% of hemolysis occurred): above 300 μg/ml
[2]
  IC50 (concentration inhibiting growth of fungi by 50%): 6.8 µg/mL

## N-methyl-N-D-fructosylvacidin methyl ester [Example IV]
Human erythrocytes
  EH50 (concentration at which 50% of hemolysis occurred): 170 µg/mL
[2]
  IC50 (concentration inhibiting growth of fungi by 50%): 0.01 µg/mL

## N-methyl-N-fructosyltrychomycin methyl ester [Example VI]
Human erythrocytes
  EH50 (concentration at which 50% of hemolysis occurred): ≈ 165 μg/ml
[2]
  IC50 (concentration inhibiting growth of fungi by 50%): 0.013 µg/mL

— US5942495A, “Antibiotics” (BTG International Limited, priority 1997, dated 1999)
